In patent US20110064789A1, “DOCOSAHEXANOIC ACID AS INHIBITOR OF H. PYLORI” (priority 2009, published 2011):

How the values were obtained:
H. pylori [1] = conditions: in vitro assay of Thompson et al.; cited from earlier work
[2] = tested on: H. pylori strains 26695 (ATCC 700392), SS1 and B128; assay: In vitro incubation of H. pylori broth cultures with DHA added at time 0 (growth, viable CFU); assay type: cell-based, Helicobacter pylori; conditions: DHA 250 μM
H. pylori SS1 strain = assay: Efficiency of DHA versus standard therapy in H. pylori eradication in mice; assay type: in vivo, C57BL/6 mice; conditions: mice infected one month; DHA 15 days, standard therapy 7 days
Text: C57BU6 mice have been infected with H. pylori SS1 strain for one month and proceed to treatment with DHA for 15 days or/and standard therapy for 7 days, as described elsewhere by Lee et al.^52 and van Zanten et al.^53. According to the standard therapy, mice received omeprazole (400 μmol/kg/day), metronidazole (14.2 μmol/kg/day) and clarithromycin (7.15 μmol/kg/day)^53.

H. pylori strain SS1 = assay: Mouse model for H. pylori gastric colonization, DHA in drinking water; assay type: in vivo; conditions: for stomach colonization / mice in which colonization by H. pylori occurred / inhibition of H. pylori growth (gastric colonization): DHA 50 μM in drinking water
Text: Five-weeks-old specific pathogen-free C57BU6 male mice have been purchased from Charles River Laboratories (France). Animals were housed in microisolators in polycarbonate cages. Food has been supplied ad libitum. Standard diet was purchased from SAFE (Epinay/Orge, France). Animals were acclimatized for one week before inoculation. The experiments reported in the study were approved in advanced by the Central Animal Facility Committee of Institut Pasteur, in conformity with the French Ministry of Agriculture Guidelines for Animal Care.
H. pylori strain SS1 was grown on blood agar plates, harvested after 24 h and suspended in peptone broth. Twenty four mice (n=24) were orogastrically inoculated 100 μL of a suspension of 10^8 CFU/mL of H. pylori strain SS1, whereas non-infected groups of mice (n=24) were given 100 μL of peptone broth. Mice were sacrificed 1 or 3 months after infection. For each time point, the experiments consisted in 4 groups of mice, 2 groups received drinking water and for the two other groups, drinking water was supplemented with DHA at a final concentration of 50 μM. Dose of 50 μM corresponds more precisely to a quantity of 0.068 mg of DHA received by each mouse each day. Each two groups consisted of one uninfected-group (n=6) and one H. pylori strain SS1 infected-group (n=6). Stomachs were isolated from each mouse and used to measure H. pylori colonization as previously described by Ferrero et al.^51
C57BL/6 mice were therefore infected with SS1 strain and start on DHA treatment for the whole period of the experiment, which was given in their drinking water in a concentration of 50 μM. Mice were sacrificed at one, three, six or nine months of infection.

[3] = tested on: H. pylori strains 26695, SS1 and B128; assay: In vitro addition of DHA to a 12 hours H. pylori culture (bactericidal/bacteriostatic effect, CFU); assay type: cell-based, Helicobacter pylori; conditions: versus prior art doses
Method: Stock solutions of DHA were diluted at desired concentrations (from 10 μM to 1000 μM) in Brucella broth (BB) enriched with 10% FBS. […] Each experiment consisting of a control (bacterial medium) and bacteria incubated with DHA at 10 μ[…] and 1000 μM was performed in triplicate. DHA was added at the time 0 of the experiments or after 12 hours. H. pylori broth cultures were incubated microaerophilically, at 37° C. for 48 hours. Every 6 hours, the OD 600 nm of the cultures was measured and 200 μL samples were diluted and plated on blood agar plates for the numeration of viable bacteria (colony-forming-units (CFU)) after 48 hours of incubation at 37° C. The question as to whether DHA has a bactericidal effect was answered by conducting an experiment where DHA was added to a 12 hours H. pylori culture. FIG. 2 represents the viability of the three strains of H. pylori used. Addition of DHA after 12 hours of H. pylori growth led to a decrease of the ability to form CFU in a dose dependent manner.

H. pylori [4] = conditions: cited from earlier work

With `CCCCC/C=C\C/C=C\C/C=C\CCCCC(=O)O` [ω-6C18:3, linolenic acid ω-6C18:3] as the compound, how does the “concentration that could inhibit the growth of H. Pylori” value (H. pylori [1]) read?
The value was 0.2 mM.

With `CC/C=C\C/C=C\C/C=C\C/C=C\C/C=C\C/C=C\CCC(=O)O` [DHA, docosahexaenoic acid] as the compound, how does the “bacterial viability of strain 26695 as compared to SS1” value [2] read?
Its value is 100 times.

What about the lower gastric colonization (H. pylori SS1 strain) of the same compound?
The lower gastric colonization was 10 times.

And the “dose that showed a higher inhibitory role in gastric colonization” value (H. pylori strain SS1; 25, 50 and 100 μM tested in drinking water)?
The value was 50 µM.

What about the stomach colonization (H. pylori strain SS1; after 1 month of infection) of the same compound?
The stomach colonization was 0.47×10^5 CFU/g gastric tissue.

And the stomach colonization (H. pylori strain SS1; after the third month)?
The stomach colonization was 0.62×10^5 CFU/g gastric tissue.

What about the “mice in which colonization by H. pylori occurred” value (H. pylori strain SS1; first month of infection) of the same compound?
Its value is 20%.

And the “mice in which colonization by H. pylori occurred” value (H. pylori strain SS1; third month)?
The value was 50%.

And the “inhibition of H. pylori growth (gastric colonization)” value (H. pylori strain SS1; nine months of infection)?
The value was “about 100 fold”.

And the “inhibition of H. pylori growth (gastric colonization)” value (H. pylori strain SS1; one, three and six months of infection)?
The value was “approximately 10 fold”.

What about the toxicity (H. pylori strain SS1; DHA 50 μM in mice drinking water, 0.068 mg per mouse per day) of the same compound?
The toxicity was “no toxicity concerns”.

And the “doses giving bactericidal and bacteriostatic effects, lower than the prior art doses” value [3]?
The value was 5 to 10 times.

Which “effect on growth of H. pylori” value (H. pylori [4]) does the source give for `O=C(O)CCCc1ccccc1` [4-phenylbutyrate] here?
The value was “ability to inhibit the growth of H. pylori”.

Which “effect on growth of H. pylori” value (H. pylori [4]) does the source give for `CCC(C(=O)O)c1ccccc1` (stereo not shown) [2-phenylbutyrate] here?
Its value is “ability to inhibit the growth of H. pylori”.

Which “concentration that could inhibit the growth of H. Pylori” value (H. pylori [1]) does the source give for `CC/C=C\C/C=C\C/C=C\CCCCCCCC(=O)O` [linolenic acid ω-3C18:3] here?
The value was 0.2 mM.

For `CC/C=C\C/C=C\C/C=C\C/C=C\C/C=C\CCCC(=O)O` [EPA], which “concentration that could inhibit the growth of H. Pylori” value (H. pylori [1]) is on record?
The value was 0.2 mM.
